Test results published in PMC4494927, “Discovery of a small molecule targeting SET-PP2A interaction to overcome BCR-ABLT315I mutation of chronic myeloid leukemia” (Oncotarget, 2015).

Experiments:
EphA1 = EphA1 (Homo sapiens, UniProt P21709); assay: In vitro kinase assay (Kinase-Glo / ADP-Glo); assay type: biochemical; details: TGI1002 1 µM; means of two independent experiments; read-out: Inhibitory effect (%)
Method: (§1) All kinase reactions were carried out in 384-well plates. After addition of the compounds, kinase and ATP-substrate were added to the assay plates successively, the assay plates were centrifuged at 1,000 x g for 1 min and incubated for 1 h at 30 °C. Then, Kinase-Glo Plus or ADP-Glo reagent was added to each well. In Kinase-Glo assay, after addition of the reagent for 20 min, the luminescence was measured on an EnVision Multilabel Plate Reader (Perkin-Elmer). In ADP-Glo assay, after addition of the reagent for 40 min, Kinase Detection Reagent was added and incubated for another 30 min at 27 °C, and then the luminescence was measured. Kinase inhibition rates were calculated per manufacturer's instructions.

GSK3β = GSK3β (Homo sapiens, UniProt P49841); assay: In vitro kinase assay (Kinase-Glo / ADP-Glo); assay type: biochemical; details: TGI1002 1 µM; means of two independent experiments; read-out: Inhibitory effect (%)
Method: as §1

Aurora B = Aurora B (Homo sapiens, UniProt Q96GD4); assay: In vitro kinase assay (Kinase-Glo / ADP-Glo); assay type: biochemical; details: TGI1002 1 µM; means of two independent experiments; read-out: Inhibitory effect (%)
Method: as §1

EGFR = EGFR (Homo sapiens, UniProt P00533); assay: In vitro kinase assay (Kinase-Glo / ADP-Glo); assay type: biochemical; details: TGI1002 1 µM; means of two independent experiments; read-out: Inhibitory effect (%)
Method: as §1

AMPK (A1/B1/G1) = AMPK (A1/B1/G1) (Homo sapiens, UniProt Q13131); assay: In vitro kinase assay (Kinase-Glo / ADP-Glo); assay type: biochemical; details: TGI1002 1 µM; means of two independent experiments; read-out: Inhibitory effect (%)
Method: as §1

PLK1 = PLK1 (Homo sapiens, UniProt P53350); assay: In vitro kinase assay (Kinase-Glo / ADP-Glo); assay type: biochemical; details: TGI1002 1 µM; means of two independent experiments; read-out: Inhibitory effect (%)
Method: as §1

ALK = ALK (Homo sapiens, UniProt Q9UM73); assay: In vitro kinase assay (Kinase-Glo / ADP-Glo); assay type: biochemical; details: TGI1002 1 µM; means of two independent experiments; read-out: Inhibitory effect (%)
Method: as §1

CDK1/CyclinA2 = CDK1/CyclinA2 (Homo sapiens, UniProt P06493); assay: In vitro kinase assay (Kinase-Glo / ADP-Glo); assay type: biochemical; details: TGI1002 1 µM; means of two independent experiments; read-out: Inhibitory effect (%)
Method: as §1

PKAcr = PKAcr (Homo sapiens, UniProt P22612); assay: In vitro kinase assay (Kinase-Glo / ADP-Glo); assay type: biochemical; details: TGI1002 1 µM; means of two independent experiments; read-out: Inhibitory effect (%)
PKAcr, sequence (P22612 whole entry): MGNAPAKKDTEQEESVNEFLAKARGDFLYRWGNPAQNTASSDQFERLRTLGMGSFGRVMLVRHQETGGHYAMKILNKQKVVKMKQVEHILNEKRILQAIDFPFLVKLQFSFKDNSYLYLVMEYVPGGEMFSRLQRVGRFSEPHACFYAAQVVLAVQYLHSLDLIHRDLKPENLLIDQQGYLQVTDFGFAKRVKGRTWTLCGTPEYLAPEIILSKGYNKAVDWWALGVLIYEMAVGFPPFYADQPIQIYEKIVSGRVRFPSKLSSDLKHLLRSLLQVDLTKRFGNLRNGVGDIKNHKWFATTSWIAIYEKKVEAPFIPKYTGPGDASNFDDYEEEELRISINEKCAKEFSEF
Method: as §1

PI3Kα = PI3Kα (Homo sapiens, UniProt P42336); assay: In vitro kinase assay (Kinase-Glo / ADP-Glo); assay type: biochemical; details: TGI1002 1 µM; means of two independent experiments; read-out: Inhibitory effect (%)
Method: as §1

IGF1R = IGF1R (Homo sapiens, UniProt P08069); assay: In vitro kinase assay (Kinase-Glo / ADP-Glo); assay type: biochemical; details: TGI1002 1 µM; means of two independent experiments; read-out: Inhibitory effect (%)
Method: as §1

AXL = AXL (Homo sapiens, UniProt P30530); assay: In vitro kinase assay (Kinase-Glo / ADP-Glo); assay type: biochemical; details: TGI1002 1 µM; means of two independent experiments; read-out: Inhibitory effect (%)
Method: as §1

FLT3 = FLT3 (Homo sapiens, UniProt P36888); assay: In vitro kinase assay (Kinase-Glo / ADP-Glo); assay type: biochemical; details: TGI1002 1 µM; means of two independent experiments; read-out: Inhibitory effect (%)
Method: as §1

KDR = KDR (Homo sapiens, UniProt P35968); assay: In vitro kinase assay (Kinase-Glo / ADP-Glo); assay type: biochemical; details: TGI1002 1 µM; means of two independent experiments; read-out: Inhibitory effect (%)
KDR, sequence (P35968 20-1356): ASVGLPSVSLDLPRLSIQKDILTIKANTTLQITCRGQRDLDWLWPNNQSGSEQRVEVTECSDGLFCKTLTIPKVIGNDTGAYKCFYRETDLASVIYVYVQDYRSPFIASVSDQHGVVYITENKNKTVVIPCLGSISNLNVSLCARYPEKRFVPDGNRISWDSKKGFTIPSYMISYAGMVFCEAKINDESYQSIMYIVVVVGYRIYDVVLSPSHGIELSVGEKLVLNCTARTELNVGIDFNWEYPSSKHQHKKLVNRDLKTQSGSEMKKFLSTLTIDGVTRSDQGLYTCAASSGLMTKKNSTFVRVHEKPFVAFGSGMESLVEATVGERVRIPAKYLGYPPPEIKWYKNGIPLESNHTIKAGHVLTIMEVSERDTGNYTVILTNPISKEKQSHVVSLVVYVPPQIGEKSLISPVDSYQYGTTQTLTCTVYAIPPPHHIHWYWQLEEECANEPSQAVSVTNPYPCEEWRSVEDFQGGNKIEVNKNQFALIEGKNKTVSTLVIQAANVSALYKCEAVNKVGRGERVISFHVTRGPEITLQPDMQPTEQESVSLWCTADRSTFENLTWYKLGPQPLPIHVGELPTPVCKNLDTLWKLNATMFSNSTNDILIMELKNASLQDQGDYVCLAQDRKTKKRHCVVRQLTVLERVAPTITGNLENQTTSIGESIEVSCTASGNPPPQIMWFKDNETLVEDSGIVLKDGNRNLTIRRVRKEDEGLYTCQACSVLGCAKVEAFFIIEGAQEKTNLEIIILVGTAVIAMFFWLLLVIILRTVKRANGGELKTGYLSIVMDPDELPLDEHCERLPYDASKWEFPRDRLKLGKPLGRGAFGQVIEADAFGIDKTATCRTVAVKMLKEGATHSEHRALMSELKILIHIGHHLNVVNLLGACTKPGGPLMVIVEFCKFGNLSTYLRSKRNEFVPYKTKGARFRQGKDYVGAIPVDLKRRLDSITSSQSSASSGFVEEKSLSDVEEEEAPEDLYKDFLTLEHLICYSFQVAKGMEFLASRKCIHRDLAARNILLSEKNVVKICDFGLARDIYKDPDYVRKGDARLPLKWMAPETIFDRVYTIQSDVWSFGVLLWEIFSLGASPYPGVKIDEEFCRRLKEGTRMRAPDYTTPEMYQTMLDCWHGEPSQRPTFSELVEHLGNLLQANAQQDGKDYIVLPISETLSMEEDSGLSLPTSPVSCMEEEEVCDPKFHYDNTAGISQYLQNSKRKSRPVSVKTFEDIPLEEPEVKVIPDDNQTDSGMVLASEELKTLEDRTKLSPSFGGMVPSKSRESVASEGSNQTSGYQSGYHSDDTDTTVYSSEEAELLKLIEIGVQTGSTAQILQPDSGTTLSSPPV
Method: as §1

PDGFRβ = PDGFRβ (Homo sapiens, UniProt P09619); assay: In vitro kinase assay (Kinase-Glo / ADP-Glo); assay type: biochemical; details: TGI1002 1 µM; means of two independent experiments; read-out: Inhibitory effect (%)
Method: as §1

p38β = p38β (Homo sapiens, UniProt Q15759); assay: In vitro kinase assay (Kinase-Glo / ADP-Glo); assay type: biochemical; details: TGI1002 1 µM; means of two independent experiments; read-out: Inhibitory effect (%)
p38β, sequence (Q15759 whole entry): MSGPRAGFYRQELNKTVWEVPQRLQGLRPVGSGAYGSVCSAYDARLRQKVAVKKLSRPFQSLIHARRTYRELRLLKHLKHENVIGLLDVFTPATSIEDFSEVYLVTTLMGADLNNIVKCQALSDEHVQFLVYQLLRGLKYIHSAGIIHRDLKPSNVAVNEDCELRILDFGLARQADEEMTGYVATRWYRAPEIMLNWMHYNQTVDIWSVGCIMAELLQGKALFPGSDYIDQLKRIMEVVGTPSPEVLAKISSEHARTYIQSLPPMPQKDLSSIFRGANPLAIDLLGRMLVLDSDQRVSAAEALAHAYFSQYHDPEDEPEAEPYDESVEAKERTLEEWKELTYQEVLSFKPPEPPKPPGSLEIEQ
Method: as §1

ABL1 = ABL1 (Homo sapiens, UniProt P00519); assay: In vitro kinase assay (Kinase-Glo / ADP-Glo); assay type: biochemical; details: TGI1002 1 µM; means of two independent experiments; read-out: Inhibitory effect (%)
Method: as §1

PKCξ = PKCξ (Homo sapiens, UniProt Q05513); assay: In vitro kinase assay (Kinase-Glo / ADP-Glo); assay type: biochemical; details: TGI1002 1 µM; means of two independent experiments; read-out: Inhibitory effect (%)
Method: as §1

FGFR1 = FGFR1 (Homo sapiens, UniProt P11362); assay: In vitro kinase assay (Kinase-Glo / ADP-Glo); assay type: biochemical; details: TGI1002 1 µM; means of two independent experiments; read-out: Inhibitory effect (%)
FGFR1, sequence (P11362 22-822): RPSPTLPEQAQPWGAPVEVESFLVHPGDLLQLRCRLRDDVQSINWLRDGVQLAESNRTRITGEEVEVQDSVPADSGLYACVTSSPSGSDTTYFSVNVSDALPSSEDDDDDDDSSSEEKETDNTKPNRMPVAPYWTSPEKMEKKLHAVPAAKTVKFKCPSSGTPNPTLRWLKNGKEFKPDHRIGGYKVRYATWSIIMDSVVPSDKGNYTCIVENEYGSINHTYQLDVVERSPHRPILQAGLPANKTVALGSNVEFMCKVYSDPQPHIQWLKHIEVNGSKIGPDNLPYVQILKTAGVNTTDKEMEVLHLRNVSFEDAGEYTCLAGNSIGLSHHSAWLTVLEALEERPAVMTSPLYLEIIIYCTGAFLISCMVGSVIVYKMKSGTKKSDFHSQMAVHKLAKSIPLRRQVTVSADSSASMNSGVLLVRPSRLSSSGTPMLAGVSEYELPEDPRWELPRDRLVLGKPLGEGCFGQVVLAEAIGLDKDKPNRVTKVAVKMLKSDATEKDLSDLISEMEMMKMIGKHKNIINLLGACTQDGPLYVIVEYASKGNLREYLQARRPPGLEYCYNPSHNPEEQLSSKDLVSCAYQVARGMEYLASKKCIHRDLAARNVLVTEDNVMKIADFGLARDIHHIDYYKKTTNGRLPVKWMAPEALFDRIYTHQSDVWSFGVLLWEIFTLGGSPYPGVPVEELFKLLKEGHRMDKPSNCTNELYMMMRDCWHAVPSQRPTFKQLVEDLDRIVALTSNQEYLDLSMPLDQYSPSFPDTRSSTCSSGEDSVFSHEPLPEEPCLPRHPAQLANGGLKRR
Method: as §1

ABL2 = ABL2 (Homo sapiens, UniProt P42684); assay: In vitro kinase assay (Kinase-Glo / ADP-Glo); assay type: biochemical; details: TGI1002 1 µM; means of two independent experiments; read-out: Inhibitory effect (%)
Method: as §1

AMPK (A2/B1/G1) = AMPK (A2/B1/G1) (Homo sapiens, UniProt P54646); assay: In vitro kinase assay (Kinase-Glo / ADP-Glo); assay type: biochemical; details: TGI1002 1 µM; means of two independent experiments; read-out: Inhibitory effect (%)
AMPK (A2/B1/G1), sequence (P54646 whole entry): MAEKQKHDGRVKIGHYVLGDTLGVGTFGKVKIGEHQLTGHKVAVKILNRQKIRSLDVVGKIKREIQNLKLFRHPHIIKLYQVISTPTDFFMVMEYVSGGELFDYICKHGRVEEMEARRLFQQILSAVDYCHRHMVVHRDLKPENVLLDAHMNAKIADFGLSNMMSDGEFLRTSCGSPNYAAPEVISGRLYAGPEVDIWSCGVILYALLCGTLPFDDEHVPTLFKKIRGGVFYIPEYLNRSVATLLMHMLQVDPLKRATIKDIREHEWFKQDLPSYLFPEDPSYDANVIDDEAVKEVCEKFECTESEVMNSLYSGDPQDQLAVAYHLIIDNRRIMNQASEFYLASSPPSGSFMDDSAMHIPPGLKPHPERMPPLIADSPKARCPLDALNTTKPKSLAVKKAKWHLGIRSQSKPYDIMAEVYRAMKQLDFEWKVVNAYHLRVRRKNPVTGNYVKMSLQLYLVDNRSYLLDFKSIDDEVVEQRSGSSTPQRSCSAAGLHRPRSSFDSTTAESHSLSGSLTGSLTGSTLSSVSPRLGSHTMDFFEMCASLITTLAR
AMPK (A2/B1/G1), sequence (Q9Y478 whole entry partner): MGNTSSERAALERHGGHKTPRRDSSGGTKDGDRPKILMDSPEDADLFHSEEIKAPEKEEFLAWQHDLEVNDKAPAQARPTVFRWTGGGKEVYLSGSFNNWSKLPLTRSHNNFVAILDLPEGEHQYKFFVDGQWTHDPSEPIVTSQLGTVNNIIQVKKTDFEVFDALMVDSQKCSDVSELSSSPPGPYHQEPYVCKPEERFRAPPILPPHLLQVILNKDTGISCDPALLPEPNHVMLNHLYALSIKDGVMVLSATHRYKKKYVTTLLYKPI
AMPK (A2/B1/G1), sequence (P54619 whole entry partner): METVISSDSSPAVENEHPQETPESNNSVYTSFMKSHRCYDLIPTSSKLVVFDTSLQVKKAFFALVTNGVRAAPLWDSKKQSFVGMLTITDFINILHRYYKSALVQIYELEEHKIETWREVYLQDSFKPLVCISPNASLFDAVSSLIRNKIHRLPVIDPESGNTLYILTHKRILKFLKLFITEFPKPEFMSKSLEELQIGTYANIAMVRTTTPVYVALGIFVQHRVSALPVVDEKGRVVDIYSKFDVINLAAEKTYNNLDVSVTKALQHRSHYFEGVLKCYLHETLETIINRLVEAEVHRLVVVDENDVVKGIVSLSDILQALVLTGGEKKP
Method: as §1

NEK2 = NEK2 (Homo sapiens, UniProt P51955); assay: In vitro kinase assay (Kinase-Glo / ADP-Glo); assay type: biochemical; details: TGI1002 1 µM; means of two independent experiments; read-out: Inhibitory effect (%)
NEK2, sequence (P51955 whole entry): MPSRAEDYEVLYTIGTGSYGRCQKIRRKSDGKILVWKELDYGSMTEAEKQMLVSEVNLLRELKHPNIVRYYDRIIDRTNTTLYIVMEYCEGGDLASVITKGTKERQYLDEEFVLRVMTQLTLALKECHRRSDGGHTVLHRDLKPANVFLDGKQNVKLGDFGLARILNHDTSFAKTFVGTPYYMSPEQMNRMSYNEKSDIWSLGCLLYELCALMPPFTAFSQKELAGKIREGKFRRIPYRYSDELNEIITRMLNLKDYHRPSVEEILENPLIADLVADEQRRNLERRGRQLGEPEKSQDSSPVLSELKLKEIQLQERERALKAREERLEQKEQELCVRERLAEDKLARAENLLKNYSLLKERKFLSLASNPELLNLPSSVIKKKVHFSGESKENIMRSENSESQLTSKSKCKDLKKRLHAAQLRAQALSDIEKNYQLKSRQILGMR
Method: as §1

AKT1 = AKT1 (Homo sapiens, UniProt P31749); assay: In vitro kinase assay (Kinase-Glo / ADP-Glo); assay type: biochemical; details: TGI1002 1 µM; means of two independent experiments; read-out: Inhibitory effect (%)
Method: as §1

EGFR(T790M,L858R) = EGFR(T790M,L858R) (Homo sapiens, UniProt P00533, L858R/T790M); assay: In vitro kinase assay (Kinase-Glo / ADP-Glo); assay type: biochemical; details: TGI1002 1 µM; means of two independent experiments; read-out: Inhibitory effect (%)
Method: as §1

[1] = target: T1, recombinant human SET protein (Homo sapiens, UniProt Q01105); assay: Microscale thermophoresis (MST) binding to NT647-labeled SET; details: 15 μM NT647-labeled SET, PBS pH 8.0, 25 °C
T1 construct: Genes encoding the full length of human SET (GenBank No.: AAA60318.1) was synthesized; made in house; host or cells: E. coli (pET-21a)
T1 sequence (Q01105 1-277 isoform Q01105-2): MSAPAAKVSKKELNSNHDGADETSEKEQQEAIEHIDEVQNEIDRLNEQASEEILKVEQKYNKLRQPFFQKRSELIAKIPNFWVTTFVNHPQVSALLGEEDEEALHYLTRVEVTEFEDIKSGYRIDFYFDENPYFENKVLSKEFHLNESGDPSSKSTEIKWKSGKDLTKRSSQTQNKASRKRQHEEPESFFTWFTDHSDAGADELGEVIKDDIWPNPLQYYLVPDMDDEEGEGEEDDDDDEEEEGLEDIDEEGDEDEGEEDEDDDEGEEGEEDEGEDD
Method: Thermophoresis analysis was performed during 30 s on a NanoTemper Monolith NT.115 instrument (20% LED, 40% MST power) at 25 °C.

BCR-ABL = assay: Western blot of BCR-ABL expression in K562 cells; assay type: cell-based, human
Method: Protein samples (40 μg) were resolved on SDS-PAGE gels, transferred onto PVDF membranes (Millipore) and incubated overnight with primary antibodies to β-tubulin, BCR-ABL, p-BCR-ABL, SET, PP2Ac and p-PP2Ac. The membranes were incubated with horseradish peroxidase (HRP)-conjugated secondary antibody for 1 h, and the bands were visualized using an ECL detection kit following the manufacturer's instructions. For immunoprecipitation, cells were lysed in 20 mM Tris-HCl (pH 7.0), 150 mM NaCl, 1 mM EDTA, 1 mM MgCl and 0.5% NP-40 supplemented with a cocktail of protease and phosphatase inhibitors (Roche). Lysates (200 μg) were incubated with primary antibodies (1 μg) against SET or PP2Ac at 4 °C for 10 h, protein A/G plus agarose beads were then added for immunoprecipitation overnight at 4 °C. After wash, the immunoprecipitated proteins were separated by SDS-PAGE and analyzed by Western blotting.

For `Cc1ccc(NC(=O)c2cccc(CN3CCN(C)CC3)c2)cc1Oc1nccc(-c2cccnc2)n1.Cl` [TGI1002, N-(4-methyl-3-((4-(pyridin-3-yl)-pyrimidin-2-yl)oxy)phenyl)-3-((4-methylpiperazin-1-yl)methyl)benzamide hydrochloride], the inhibition at 1 µM (EphA1) was 1.58%, the inhibition at 1 µM (GSK3β) was 2.59% and the inhibition at 1 µM (Aurora B) was 0%. It also gave an inhibition at 1 µM (EGFR) of 0%, an inhibition at 1 µM (AMPK (A1/B1/G1)) of 0.19% and an inhibition at 1 µM (PLK1) of 1.63%. It also gave an inhibition at 1 µM (ALK) of 4.27%, an inhibition at 1 µM (CDK1/CyclinA2) of 5.27% and an inhibition at 1 µM (PKAcr) of 1.45%. The inhibition at 1 µM (PI3Kα) was 2.66%, the inhibition at 1 µM (IGF1R) was 8.65% and the inhibition at 1 µM (AXL) was 3.03%. The inhibition at 1 µM (FLT3) was 2.97%, the inhibition at 1 µM (KDR) was 0.64% and the inhibition at 1 µM (PDGFRβ) was 17.2%. The inhibition at 1 µM (p38β) was 0.2%, the inhibition at 1 µM (ABL1) was 4.3% and the inhibition at 1 µM (PKCξ) was 13.3%. The inhibition at 1 µM (FGFR1) was 9.71%, the inhibition at 1 µM (ABL2) was 19.2% and the inhibition at 1 µM (AMPK (A2/B1/G1)) was 2.57%. For the same molecule, the inhibition at 1 µM (NEK2) was 1.56%, the inhibition at 1 µM (AKT1) was 5.07% and the inhibition at 1 µM (EGFR(T790M,L858R)) was 8.74%. For the same molecule, the Kd [1] was 1.66 ± 0.45 µM and the “expression level of BCR-ABL” value (BCR-ABL) was “not affected”.
